The source of these data is patent EP0311616B1, “COMBINATIONS OF GAMMA INTERFERONS AND ANTI-INFLAMMATORY OR ANTI-PYRETIC AGENTS FOR TREATING DISEASES” (BIOGEN, INC., priority 1986, dated 1987).

Like-named read-outs stand apart in the source and are kept apart here.

For one series, the system named is BL/MEX6 human melanoma. In words: six day Subrenal Capsule Assay, tumor xenograft implanted under the renal capsule of normal immunocompetent mice. In kind it is in vivo. Particulars: for Avg. Δ Tumor Size (mean ± S.D.): change Day 6-Day 0; for Tumor Response: summary of Examples 1-3, IFN-γ i.m., cortisone and prednisone s.c., all other agents p.o., b.i.d., QD1-5, significance of inhibition vs control. The source says: (§1) In each example, following the standardized protocol for the Subrenal Capsule™ Assay [A.E. Bogden, P.M. Haskell, D.J. LePage, D.E. Kelton, W.R. Cobb, H.J. Esber, "Growth Of Human Tumor Xenografts Implanted Under The Renal Capsule Of Normal Immunocompetent Mice", Exp. Cell Biology, 47, pp. 281-93 (1979)], we implanted BL/MEX6 human melanoma established in serial transplantation (Bogden Laboratories) under the renal capsule of normal, immunocompetent mice (BALB/c × DBA/2) F₁ (CDF₁) (Examples 1 and 2) and into (B6C3F₁) mice (Example 3). Each mouse weighed approximately 25 grams. We then divided the mice into treatment groups as follows: group 1: 10 mice, groups 2-7: 8 mice each.
Over a five-day period, we treated each of groups 4-7 of mice with one of the following anti-inflammatory agents or anti-pyretic agents, either singly or in combination with IFN-γ (IFN-γ dosage: 2,000 µg/Kg/inj., b.i.d., i.m.):
The anti-inflammatory agents or anti-pyretic agents were administered prior to IFN-γ in all combination treatment groups. In each example, we treated groups 1-3 of mice as follows: Group 1: 0.25 ml/inj., b.i.d., i.m. PBS (vehicle treated control) Group 2: 400 mg/Kg/inj., s.c. DTIC [dacarbazine] (positive chemotherapy control) Group 3: 2,000 µg/Kg/inj., b.i.d., i.m. IFN-γ
(§2) In each example, for each mouse, we recorded initial body weight, implanted a tumor and recorded an initial in situ tumor measurement (two diameters) in ocular micrometer units (omu). We administered treatment on days 1-5. Survivors were recorded and any mice dying prior to sacrifice were necropsied. On day 6, the mice were sacrificed, final body weights were recorded, implanted kidneys were removed and final in situ tumor measurements were made to determine tumor growth inhibition or regression. We calculated the ratio of average final body weight to initial body weight (FBW/IBW) to monitor systemic toxicity. Change in (Δ) tumor size between day of sacrifice (day 6) and day of tumor implant (day 0) was calculated individually and for each group.

For series [1] the following is noted: day 6.
From the text: as §1, §2

[2] abbreviates: Example 2, (BALB/c × DBA/2) F1 (CDF1) mice, treatment QD1-5 at doses of Table III.
[3] abbreviates: Example 2, CDF1 mice, treatment QD1-5 at doses of Table III, day 6.
Setting [4] is: Example 2, CDF1 mice, treatment QD1-5 at doses of Table III.
The mark [5] stands for this setting: Example 3, (B6C3F1) mice, treatment QD1-5 at doses of Table V.
The mark [6] stands for this setting: Example 3, B6C3F1 mice, treatment QD1-5 at doses of Table V, day 6.
Setting [7] is: Example 3, B6C3F1 mice, treatment QD1-5 at doses of Table V.
Where [8] appears, read: Example 1, (BALB/c × DBA/2) F1 (CDF1) mice, treatment QD1-5 at doses of Table I.
[9] abbreviates: Example 1, CDF1 mice, treatment QD1-5 at doses of Table I, day 6.
Where [10] appears, read: Example 1, CDF1 mice, treatment QD1-5 at doses of Table I.

With `CC(=O)Oc1ccccc1C(=O)O` [ASA, acetyl salicylic acid], the “Avg. Δ Tumor Size (mean ± S.D.)” value with BL/MEX6 human melanoma (setting [2]) was determined as 3.2±1.95 omu. Moreover, in the series with BL/MEX6 human melanoma (setting [3]), the “Percent Test/Control” value was 80% and the “Test-Control (Δ tumor size (test) minus Δ tumor size (control), degree of tumor inhibition)” value is listed as -0.80 omu. Further, in the series on BL/MEX6 human melanoma, the “Tumor Response” value is “-”. The “FBW/IBW (Final Body Weight/Initial Body Weight)” value (from here on “FBW/IBW”) in series [1] (setting [4]) amounted to 0.93.
In the case of `CC(=O)Nc1ccc(O)cc1` [Acetaminophen], the “Avg. Δ Tumor Size (mean ± S.D.)” value in the series on BL/MEX6 human melanoma (setting [2]) stood at 1.9±1.46 omu. In addition, in the series on BL/MEX6 human melanoma (setting [3]), the “Percent Test/Control” value is reported as 48% and the “Test-Control (Δ tumor size (test) minus Δ tumor size (control), degree of tumor inhibition)” value is -2.10 omu. Also, the “Tumor Response” value in the series with BL/MEX6 human melanoma is recorded as “++ (Significant inhibition p<0.01)”.
As for `C[C@]12CCC(=O)C=C1CC[C@@H]1[C@@H]2C(=O)C[C@@]2(C)[C@H]1CC[C@]2(O)C(=O)CO` [Cortisone], the “Avg. Δ Tumor Size (mean ± S.D.)” value with BL/MEX6 human melanoma (setting [5]) worked out at 1.3±1.73 omu. In the series with BL/MEX6 human melanoma (setting [6]), the “Percent Test/Control” value was determined as 37% and the “Test-Control (Δ tumor size (test) minus Δ tumor size (control), degree of tumor inhibition)” value is on record as -2.20 omu. Further, the “Tumor Response” value with BL/MEX6 human melanoma is “+ (Significant inhibition p<0.05)”. For the same compound, the “FBW/IBW” value in series [1] (setting [7]) is on record as 0.96.
As for `CN(C)/N=N/c1[nH]cnc1C(N)=O` [DTIC, dacarbazine], the “Avg. Δ Tumor Size (mean ± S.D.)” value was 0.5±0.7 omu in the series on BL/MEX6 human melanoma (setting [8]), -0.2±0.70 omu in the series on BL/MEX6 human melanoma (setting [2]) and -0.2±1.00 omu in the series on BL/MEX6 human melanoma (setting [5]). Moreover, in the series with BL/MEX6 human melanoma (setting [9]), the “Percent Test/Control” value worked out at 14%. Moreover, the “Test-Control (Δ tumor size (test) minus Δ tumor size (control), degree of tumor inhibition)” value in the series on BL/MEX6 human melanoma (setting [9]) is -3.20 omu; with BL/MEX6 human melanoma (setting [3]), -4.20 omu; with BL/MEX6 human melanoma (setting [6]), -3.70 omu. In addition, the “R = regression from original size using the formula FTS (final tumor size)-ITS (initial tumor size)/ITS x 100” value in the series with BL/MEX6 human melanoma (Example 2, CDF1 mice, printed as R plus number in the Percent Test/Control column, day 6) is “R2%”. The “R = regression from original size using the formula (FTS-ITS)/ITS x 100” value with BL/MEX6 human melanoma (Example 3, B6C3F1 mice, printed as R plus number in the Percent Test/Control column, day 6) is listed as “R2%”. The results for the “FBW/IBW” value in series [1] (setting [10]), in series [1] (setting [4]) and in series [1] (setting [7]) were 0.86, 0.81 and 0.81, respectively.
As to `COc1ccc2c(c1)c(CC(=O)O)c(C)n2C(=O)c1ccc(Cl)cc1` [Indomethacin], the “Avg. Δ Tumor Size (mean ± S.D.)” value in the series on BL/MEX6 human melanoma (setting [8]) amounted to 3.1±1.69 omu. Also, in the series on BL/MEX6 human melanoma (setting [9]), the “Percent Test/Control” value amounted to 84% and the “Test-Control (Δ tumor size (test) minus Δ tumor size (control), degree of tumor inhibition)” value is -0.60 omu. Moreover, the “Tumor Response” value with BL/MEX6 human melanoma is recorded as “-”. In addition, the “FBW/IBW” value in series [1] (setting [10]) was 0.98.
For `COc1ccc2cc([C@H](C)C(=O)O)ccc2c1` [Naproxen] the same measures were 2.8±1.28 omu, 76%, -0.90 omu, “-” and 0.99.
As for `C[C@]12C=CC(=O)C=C1CC[C@@H]1[C@@H]2C(=O)C[C@@]2(C)[C@H]1CC[C@]2(O)C(=O)CO` [Prednisone], in the series with BL/MEX6 human melanoma (setting [5]), the “Avg. Δ Tumor Size (mean ± S.D.)” value was 0.6±1.57 omu. In addition, in the series on BL/MEX6 human melanoma (setting [6]), the “Percent Test/Control” value was 17% and the “Test-Control (Δ tumor size (test) minus Δ tumor size (control), degree of tumor inhibition)” value is on record as -2.90 omu. In addition, the “Tumor Response” value with BL/MEX6 human melanoma was “++ (Significant inhibition p<0.01)”.
